This note sets out measurements from ChEMBL document CHEMBL1201862, “PubChem BioAssay data set” (2004).

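Step 1: Grow cells in 96-well plates. Step 2: Expose to compound for 48 hours at 5 concentrations. Step 3: Interpolate endpoints linearly; if unreached, use highest concentration. GI50 marks 50% less growth.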 The source made the active and inactive calls. No stated cut-off is given here; in the data, active = GI50 up to about 1.1 µM and inactive = higher.

Test systems include CCRF-CEM; COLO 205; HCT-15; HOP-62; Hs-578T; IGROV-1; K562; LOX IMVI; M14; MDA-MB-435; MDA-N; NCI-H226; OVCAR-5; OVCAR-8; SK-MEL-2; SK-MEL-5; SK-OV-3; SW-620; UO-31; HOP-92.
Common to all, as to experiment: NCI tumour cell line growth inhibition, 48 h

Take `O=C(NNC(=O)c1ccccc1O)c1cccc(Br)c1`: the GI50 was 0.512 µM (active) in the test on CCRF-CEM; 38.7 µM (inactive) with COLO 205; 6.85 µM with HCT-15; 56.8 µM (inactive) in the test with HOP-62; > 66.7 µM (inactive) with Hs-578T; 18.3 µM (inactive) with IGROV-1. The GI50 in the test on K562 is 46.7 µM (inactive); in the test on LOX IMVI it was 15.2 µM (inactive); in the test with M14, 26.9 µM (inactive); in the test with MDA-MB-435, 37.9 µM (inactive); in the test with MDA-N, > 57.5 µM (inactive); in the test on NCI-H226 it was 23.2 µM (inactive). In addition, the GI50 with OVCAR-5 is > 100 µM (inactive); with OVCAR-8, 20.9 µM (inactive); in the test on SK-MEL-2, > 70 µM (inactive); with SK-MEL-5 it was 24.2 µM (inactive); in the test with SK-OV-3, 54.1 µM (inactive); in the test on SW-620 it was 35 µM (inactive). In addition, the GI50 with UO-31 was 10.7 µM (inactive).
For the compound `CCSc1cc2c(cc1O)CC[C@@H]1[C@@H]2CC[C@]2(C)[C@@H](O)CC[C@@H]12`, the GI50 in the test with CCRF-CEM was 10.1 µM (inactive); in the test on COLO 205, 18.3 µM (inactive); in the test on HCT-15, 5.68 µM; in the test on HOP-62, 15.7 µM (inactive); in the test on HOP-92, 8.77 µM (inactive); in the test with Hs-578T, 5.33 µM (inactive). In addition, the GI50 with IGROV-1 was 11.7 µM (inactive); in the test with K562, 4.12 µM (inactive); in the test with LOX IMVI, 10.8 µM (inactive); in the test on MDA-MB-435, 1.98 µM (inactive); with MDA-N it was 2.67 µM (inactive); in the test with NCI-H226, 15 µM (inactive). For the same compound, the GI50 with OVCAR-5 is 23 µM (inactive); in the test with OVCAR-8 it was 13.3 µM (inactive); with SK-MEL-2, 16.3 µM (inactive); with SK-MEL-5, 10.8 µM (inactive); in the test on SK-OV-3 it was 17.8 µM (inactive); in the test with SW-620 it was 3.47 µM (inactive). The GI50 with UO-31 was 15.4 µM (inactive).
Turning to `N=C(N)c1ccc(/N=N\c2c(O)ccc3cc4c(/N=N\c5ccc(C(=N)N)cc5)c(O)ccc4cc23)cc1`, the GI50 with CCRF-CEM is 37.2 µM (inactive); with COLO 205 it was > 100 µM (inactive); in the test with HCT-15, 56 µM; in the test on HOP-62 it was 45.4 µM (inactive); in the test on HOP-92 it was > 100 µM (inactive); in the test on Hs-578T it was > 100 µM (inactive). Also, the GI50 with IGROV-1 is 51.5 µM (inactive); in the test with K562, 31.2 µM (inactive); in the test with M14, > 100 µM (inactive); in the test with MDA-MB-435 it was > 100 µM (inactive); in the test on MDA-N it was > 100 µM (inactive); in the test with NCI-H226, > 100 µM (inactive). In addition, the GI50 with OVCAR-5 was > 100 µM (inactive); in the test on OVCAR-8, 80.4 µM (inactive); in the test on SK-MEL-2, > 100 µM (inactive); with SK-MEL-5, 51.6 µM (inactive); in the test on SK-OV-3 it was > 100 µM (inactive); in the test with SW-620 it was 87.1 µM (inactive). Besides, the GI50 in the test with UO-31 was 53.1 µM (inactive).
Take `N#C/C=C1\C=CC(O)C(O)C1OC1OC(CO)C(O)C(O)C1O` (stereo not given): the GI50 is > 100 µM (inactive) with CCRF-CEM; > 100 µM (inactive) in the test with COLO 205; more than 100 µM in the test on HCT-15; > 100 µM (inactive) with HOP-62; > 100 µM (inactive) with HOP-92; > 100 µM (inactive) in the test with Hs-578T. In addition, the GI50 in the test with IGROV-1, with K562, in the test on LOX IMVI, in the test on M14, in the test on MDA-MB-435 and in the test with MDA-N was > 100 µM (inactive) throughout. The GI50 in the test with OVCAR-5, with OVCAR-8, in the test on SK-MEL-2, with SK-MEL-5, in the test on SK-OV-3 and with SW-620 was > 100 µM (inactive) in each case. The GI50 in the test with UO-31 is > 100 µM (inactive).
`COC(=O)[C@]1(C)CCCC2(C)C3=C(CCC21)CC1(CC3)SCCS1` (stereo not given in full): the GI50 was > 10 µM (inactive) with CCRF-CEM; > 10 µM (inactive) in the test on COLO 205; more than 10 µM in the test with HCT-15; > 10 µM (inactive) in the test on HOP-62; > 10 µM (inactive) in the test on HOP-92; > 10 µM (inactive) in the test with Hs-578T. The GI50 in the test with IGROV-1, in the test on K562, with M14, in the test with MDA-MB-435, in the test on MDA-N and with OVCAR-8 was > 10 µM (inactive) throughout. Besides, the GI50 in the test with SK-MEL-5, in the test on SK-OV-3 and in the test with SW-620 was > 10 µM (inactive) each time.
For `CC(=O)NC(Cc1c[nH]cn1)C(=O)N1CCCC1C(N)=O` (stereo not given), the GI50 was > 100 µM (inactive) in the test on CCRF-CEM; > 100 µM (inactive) in the test on COLO 205; more than 100 µM in the test on HCT-15; > 100 µM (inactive) in the test on HOP-62; > 100 µM (inactive) in the test on HOP-92; > 100 µM (inactive) in the test with Hs-578T. The GI50 in the test with IGROV-1, in the test with K562, in the test on LOX IMVI, with M14, in the test on MDA-MB-435 and in the test with MDA-N was > 100 µM (inactive) each time. The GI50 with NCI-H226, with OVCAR-5, in the test with OVCAR-8, with SK-MEL-5, in the test with SK-OV-3 and in the test with SW-620 was > 100 µM (inactive) each time. The GI50 in the test on UO-31 was > 100 µM (inactive).
With `COc1ccc(N2C(=O)/C(=C\c3cc(OC)c(OC)c(OC)c3)S(=O)(=O)C2c2ccccc2)cc1` (stereo not given), the GI50 in the test with CCRF-CEM is 39.2 µM (inactive); in the test on COLO 205 it was 4.39 µM (inactive); in the test with HCT-15, 27.7 µM; with HOP-62, 48.8 µM (inactive); in the test on HOP-92, 41.7 µM (inactive); with Hs-578T, 58.3 µM (inactive). For the same compound, the GI50 in the test with K562 is 12.7 µM (inactive); in the test on LOX IMVI, 20 µM (inactive); in the test with M14, 19.4 µM (inactive); in the test with MDA-MB-435, 21.8 µM (inactive); with MDA-N, 13.9 µM (inactive); in the test on NCI-H226, 30.8 µM (inactive). For the same compound, the GI50 in the test with OVCAR-8 was 25.2 µM (inactive); in the test with SK-MEL-2, 8.55 µM (inactive); in the test on SK-MEL-5, 14.2 µM (inactive); with SK-OV-3 it was 37.5 µM (inactive); in the test on SW-620 it was 48.6 µM (inactive); in the test with UO-31 it was 14.8 µM (inactive).
For the compound `CN1C/C(=C\c2ccc(Cl)cc2)C(=O)/C(=C/c2ccc(Cl)cc2)C1`, the GI50 is 0.323 µM (active) in the test with CCRF-CEM; 0.979 µM (active) with COLO 205; 0.731 µM in the test on HCT-15; 2.68 µM (inactive) in the test with HOP-62; > 26.9 µM (inactive) in the test with HOP-92; 2.65 µM (inactive) with Hs-578T. Moreover, the GI50 was 1.4 µM (inactive) in the test on IGROV-1; 0.33 µM (active) with K562; 0.237 µM (active) in the test on LOX IMVI; 1.73 µM (inactive) in the test with M14; 1.72 µM (inactive) in the test on MDA-MB-435; 0.861 µM (active) in the test on MDA-N. The GI50 is 4.45 µM (inactive) in the test with NCI-H226; 3.34 µM (inactive) in the test on OVCAR-5; 0.232 µM (active) in the test with OVCAR-8; > 88.9 µM (inactive) with SK-MEL-2; 2.69 µM (inactive) in the test with SK-MEL-5; 0.386 µM (active) in the test on SW-620. For the same compound, the GI50 in the test with UO-31 is 1.77 µM (inactive).
Turning to `COc1cc2c(=O)cnoc2cc1O`, the GI50 is > 100 µM (inactive) with CCRF-CEM; > 100 µM (inactive) in the test on COLO 205; more than 100 µM in the test with HCT-15; > 100 µM (inactive) in the test with HOP-92; > 100 µM (inactive) in the test on Hs-578T; > 100 µM (inactive) with IGROV-1. Further, the GI50 with K562, with M14, with MDA-MB-435, in the test on MDA-N, in the test on NCI-H226 and with OVCAR-5 was > 100 µM (inactive) in each case. The GI50 with OVCAR-8, in the test on SK-MEL-2, in the test with SK-MEL-5, in the test on SK-OV-3, in the test on SW-620 and with UO-31 was > 100 µM (inactive) throughout.
On to `N#Cc1nc(C(=O)c2ccccc2)oc1N`, for which the GI50 is > 100 µM (inactive) in the test with CCRF-CEM; more than 100 µM in the test on HCT-15; > 100 µM (inactive) with HOP-62; > 100 µM (inactive) in the test with HOP-92; 20.9 µM (inactive) in the test on Hs-578T; 64.9 µM (inactive) in the test on IGROV-1. The GI50 in the test with K562, with LOX IMVI, in the test with M14, in the test with MDA-MB-435, in the test with MDA-N and in the test with OVCAR-5 was > 100 µM (inactive) each time. In addition, the GI50 in the test on OVCAR-8, with SK-MEL-2, in the test with SK-MEL-5, in the test with SK-OV-3 and in the test on SW-620 was > 100 µM (inactive) throughout.
`COc1cc(COC(=O)N2CC=CC2C(=O)O)c([N+](=O)[O-])cc1OC` (stereo not given): the GI50 in the test with CCRF-CEM is > 100 µM (inactive); in the test on COLO 205, > 100 µM (inactive); with HCT-15, more than 100 µM; in the test with HOP-62, > 100 µM (inactive); with HOP-92, > 100 µM (inactive); with Hs-578T, > 100 µM (inactive). In addition, the GI50 in the test with IGROV-1, in the test with K562, with M14, in the test on MDA-MB-435, in the test with MDA-N and in the test on NCI-H226 was > 100 µM (inactive) in each case. Further, the GI50 with OVCAR-5, with OVCAR-8, in the test on SK-MEL-5, in the test with SK-OV-3, with SW-620 and with UO-31 was > 100 µM (inactive) in each case.
